Assay results as given in patent publication US5599813A, “Thiazolopyrimidine derivatives” (Daiichi Pharmaceutical Co., Ltd., priority 1993, dated 1997).
Counter-ions that a name gives are not always drawn.

Tested on: Chorioallantoic membrance (CAM)
Experiment: CAM angiogenesis Inhibition Test
Format: in vivo, chicken (4 to 5 day old fertilized egg)
Details: CAM of fertilized chicken egg, two days after; for Inhibition activity (%): 10 μl/egg in physiological saline or DMSO, 37.6° C., control vascularization settled as 100; for Judgement: class of inhibition activity, significance by Student's t-test, 2880 min
Procedure: Test was carried out by […]-Folkman's method (Nature, 297, 307 (1982)), but partially modified as described in Exp. Path. 30, 143 (1986). Chorioallantoic membrance (CAM) of 4 to 5 day old fertilized chicken egg (Babucock) was exposed. […] Vascularization (angiogenesis) of the control group was settled as 100 and the degree to the test sample was calcurated and expressed as inhibition activity. The significance of activity was determined by Student's t-test and the case over 50 % was indicated to + and the case below 50 % to i as shown in the following table.

Row | SMILES | Inhibition activity (%) | Judgement
1 | O=C(O)COC1=C(C(=O)Nc2cc(Cl)cc(Cl)c2)SC2=NCCCN21 [Example 114, N-(3,5-Dichlorophenyl)-3-carboxymethyloxy-6,7-dihydro-5H-thiazolo[3,2-a]pyrimidine-2-carboxamide] | 94.3% | + (over 50 %)
2 | CCCCCCCCc1ccc(NC(=O)C2=C(CCC)N3CCCN=C3S2)cc1.Cl [Example 19, N-(4-n-Octylphenyl)-3-propyl-6,7-dihydro-5H-thiazolo[3,2-a]-pyrimidine-2-carboxamide hydrochloride] | 69.3% | + (over 50 %)
3 | CCCC1=C(C(=O)Nc2ccc(SCCCCCC(=O)O)cc2)SC2=NCCCN21.Cl [Example 90, N-[4-(5-Carboxypentylthio)phenyl]-3-propyl-6,7-dihydro-5H-thiazolo[3,2-a]pyrimidine-2-carboxamide hydrochloride] | 93.2% | + (over 50 %)
4 | CCCC1=C(C(=O)Nc2cc(Cl)cc(Cl)c2)SC2=NCCCN21 [Example 13, N-(3,5-dichlorophenyl)-3-propyl-6,7-dihydro-5H-thiazolo[3,2a-]pyrimidine-2-carboxamide hydrochloride] | 76.5% | + (over 50 %)
5 | Cl.O=C(Nc1cc(Cl)cc(Cl)c1)C1=C(C2CCC2)N2CCCN=C2S1 [Example 2, N-(3,5-Dichlorophenyl)-3-cyclobutyl-6,7-dihydro-5H-thiazolo[3,2-a]pyrimidine-2-carboxamide hydrochloride] | 82.5% | + (over 50 %)
6 | Cl.O=C(Nc1cc(Cl)cc(Cl)c1)C1=C(C2CCCC2)N2CCCN=C2S1 [Example 9, N-(3,5-Dichlorophenyl)-3-cyclopentyl-6,7-dihydro-5H-thiazolo[3,2-a]pyrimidine-2-carboxamide hydrochloride] | 37.2% | 
7 | CCCCCCCCc1ccc(NC(=O)C2=C(CCC#N)N3CCCN=C3S2)cc1.Cl [Example 82, N-(4-Octylphenyl)-3-(2-cyanoethyl)-6,7-dihydro-5H-thiazolo-[3,2-a]pyrimidine-2-carboxamide hydrochloride] | 88.4% | + (over 50 %)
8 | CCCCC1=C(C(=O)Nc2cc(F)cc(F)c2)SC2=NCCCN21.Cl [Example 39, N-(3,5-Difluorophenyl)-3-butyl-6,7-dihydro-5H-thiazolo[3,2-a]pyrimidine-2-carboxamide hydrochloride] | 32.3% | 
9 | CCCCCCCCc1ccc(NC(=O)C2=C(C3CCC3)N3CCCN=C3S2)cc1.Cl [Example 8, N-(4-Octylphenyl)-3-cyclobutyl-6,7-dihydro-5H-thiazolo[3,2-a]pyrimidine-2-carboxamide hydrochloride] | 82.7% | + (over 50 %)
10 | CCCC1=C(C(=O)Nc2ccc(C(C)(C)C)cc2)SC2=NCCCN21.Cl [Example 16, N-(4-tert-Butylphenyl)-3-propyl-6,7-dihydro-5H-thiazolo[3,2-a]pyrimidine-2-carboxamide hydrochloride] | 57.1% | + (over 50 %)
